Data published in patent EP4389749A1, “SUBSTITUTED 3,7-DIHYDRO-1H-PURINE-2,6-DIONES AND USE THEREOF” (invIOs GmbH, priority 2022, dated 2024).
pEC50: −log10 of the molar value.

What was measured:
B16-SIY melanoma = assay: Efficacy on B16-SIY melanoma, in vivo tumor growth; conditions: p.o., over the course of 21 days, C57BL/6 mice, B16-SIY intradermal
Experimental: Eight-weeks-old C57BL/6 mice were purchased from Charles River. All animal experiments were in accordance with institutional guidelines of the Research Institute of Molecular Pathology (Austria) and approved according to the European Community rules of animal care with the permission of the Austrian Ministry of Science.
B16-SIY melanoma cells were cultured in DMEM containing 10 % FCS, 1 % PenStrep and 1 % glutamine and grown in a humidified incubator at 37 °C and 5 % CO2. For tumor inoculations sub-confluent B16-SIYcells were trypsinized, washed, counted and resuspended in PBS to a final concentration of 1×10^7 B16-SIY cells/ml.
30 C57BL/6 mice were inoculated intradermally with 1×10^6 B16-SIY cells and tumor bearing mice randomly assigned to 3 different groups […] post transplantation: Compound 142 30 mg/kg 3 days post B16-SIY inoculation and subsequent daily administration of 10 mg/kg (10 mice), Compound 142 9 mg/kg 3 days post B16-SIY inoculation and subsequent daily treatment of 3 mg/kg (10 mice), or vehicle control (10 mice). Compound 142 was diluted in 10 % DMSO, 20 % PEG400, 21 % HPbCD, 0.35 % HPMC and 48.65 % H2O and mice treated p.o. with 2 different treatment schedules: d3: 30 mg/kg + QD: 10 mg/kg or d3: 9 mg/kg + QD: 3 mg/kg (Figure 1). […] Tumors were measured daily and mice sacrificed 21 days post B16-SIY inoculation (Figure 1). […]

CD4+ T-cells = assay: Immunostimulation assay with anti-CD3/28 stimulated T-cells, CD69 expression by flow cytometry; type: cell-based, human; conditions: T-cell; purified human CD4+ and CD8+ T-cells, 1 µg/ml anti-CD3, 1 µg/ml anti-CD28, 16 hours, surface FACS; read-out: EC50 CD4+
Method in brief: (§1)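 Human CD4+/CD8+ T-cells purified from buffy-coat PBMCs were stimulated with 1 µg/ml anti-CD3 and 1 µg/ml anti-CD28 plus compound (0.001–30 µM) for 16 h at 37 °C. CD69 measured by flow cytometry; DMSO set minimal, CD3/28 Dynabeads maximal activation; EC50 by variable-slope fit.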

CD8+ T-cells = assay: as above; type: cell-based, human; conditions: T-cell; purified human CD4+ and CD8+ T-cells, 1 µg/ml anti-CD3, 1 µg/ml anti-CD28, 16 hours, surface FACS; read-out: EC50 CD8+
Method in brief: as §1

pEC50 (CD4+ T-cells): 6.00 to 6.30
pEC50 (CD8+ T-cells): 6.00 to 6.30
SMILES: CC(O)Cn1c(=O)[nH]c(=O)c2c1nc(-c1ccc(Oc3ccc(OC(F)(F)F)cc3)cc1)n2C (stereo not shown) [Compound 142, 3-(2-hydroxypropyl)-7-methyl-8-(4-(4-(trifluoromethoxy)phenoxy)phenyl)-3,7-dihydro-1H-purine-2,6-dione]
Tumor volumes compared to vehicle control (B16-SIY melanoma; d3: 9 mg/kg + QD: 3 mg/kg): significantly reduced
Tumor volumes compared to vehicle control (B16-SIY melanoma; d3: 30 mg/kg + QD: 10 mg/kg): significantly reduced
